Entries after “also recorded” stand apart in the source; their conditions may differ. Read-outs that look alike come from different tables or passages of the source.
How the values were obtained:
[1] = molecular target: T1, human α-synuclein aggregates (Homo sapiens, UniProt P37840); experiment: Fluorescence saturation binding of compounds to α-synuclein aggregates
T1 construct: made in house; host or cells: E. coli BL21 (DE3)
Procedure: 1 μL ampicillin anti-plasmid with α-synuclein in the correct sequence was mixed with 100 μL BL21 (DE3) receptive cells, cooled in an ice bath, added in 600 μL LB medium, and cultured in a 220 rpm shaking bed at 37° C. for 90 min. 150 μL cultured bacterial solution was added to the sterilized dish coated with ampicillin medium evenly. Positive clonal colonies were selected and added to the configured ampicillin medium and cultured in an incubator at 37° C. The cultured positive clones were poured into 1 L of 2×YT medium and cultured in a 220 rpm shaker at 37° C. to make OD 600 0.6 and then cooled to 18° C. Each medium was induced to culture for 16 hours by adding 1 ml of IPTG (500 mM).
The bacteria were centrifuged at high speed for 30 min after ultrasonic. The supernatant was collected to remove DNA and hetero-proteins by Ni-NTA chromatography. α-synuclein monomer was purified by molecular exclusion chromatography and the purity was verified by SDS-PAGE discontinuous electrophoresis.
α-synuclein monomers were prepared into a buffer solution containing 1×PBS, wherein the final protein concentration was 100 μM (about 5 mg/mL), and incubated in a 1000 rpm shaker at 37° C. for 7 days to obtain α-synuclein aggregates. The initial and final concentrations of the monomer protein were determined by the BCA method.
10 mM mother solution of DMSO was prepared from 1 mg of the compound, then diluted to 20 μM with PBS, and made gradient dilution 7 times (3× each dilution); 30 μL of test compound was added to the 384-well plate, following the experimental group was added to 30 μL α-synuclein aggregates (3 μM), and the control group was added to the same amount of PBS. After the 384-well plate was incubated shaking at 50 rpm at room temperature for 1 hour, the plate was taken out to detect the maximum absorption and emission wavelengths of the compound with an ELISA Microplate Reader, and the fluorescence values were detected at these wavelengths, too. The fluorescence changes in different concentrations of compounds were calculated using the experimental group data minus the control group data, and the protein-binding affinity of compounds was obtained using the Saturation binding module of GraphPad Prism.
The binding affinity of the Formula I compound to α-synuclein aggregates is determined by the above method, and the dissociation equilibrium constant Kd is shown in Table 1.

Aβ lesions = molecular target: T2, Aβ lesions (Homo sapiens, UniProt P05067); experiment: Fluorescence staining of brain slices from patients with Alzheimer's disease (AD), Aβ; assay type: binding; conditions: 30 μM compound, superior temporal gyrus sections 6 μm, fluorescence microscopy, FIG. 2
T2 construct: from tissue
T2 sequence (P05067 672-713 limits assumed): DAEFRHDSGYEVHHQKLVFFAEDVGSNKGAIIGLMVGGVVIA
Procedure: (§1) The tested compound was diluted to 30 μM with PBS solution containing 50% EtOH, following incubated with the fresh frozen brain sections at room temperature for 30 minutes, then washed with 50% ethanol solution for 5 minutes and ultra-pure water twice for 3 minutes each time in sequence. After the sections were buried with an embedding agent (VECTASHIELD H-1000, Vector Laboratories), images of the lesion accumulation area on the sections were obtained by fluorescence microscopy. Analysis software (Image J) was used to quantify the fluorescence radiance of both the lesion area and the area of the non-forming lesion (background) to evaluate binding selectivity.
(§2) The dewaxed brain tissue was fixed in a 10% neutral buffer of formalin solution, embedded with paraffin, and then sliced with a thickness of 6 μm. The staining method is the same as the above method for DLB patients.

[2] = molecular target: T3, Lewy bodies and Lewy neurites (α-synuclein lesions) (Homo sapiens, UniProt P37840); experiment: Fluorescence staining of brain slices from patients of dementia with Lewy body (DLB); assay type: binding; conditions: for Staining of Lewy bodies and Lewy neurites in DLB patient brain slices: 30 μM compound, frozen amygdala sections 20 μm, fluorescence microscopy, FIG. 1; for Binding to α-synuclein pathological tissue compared with Aβ and Tau pathological tissue (selectivity): DLB versus AD brain slices, FIG. 1 and FIG. 2
T3 construct: from tissue; host or cells: human amygdala, DLB patient, fresh frozen sections
Procedure: Brain slices from patients with dementia with Lewy bodies were taken from the amygdala of a deceased person in stage 2 of dementia with Lewy bodies. Frozen sections of the amygdala with rich α-synuclein were performed with a thickness of 20 μm.
as §1

[3] = tested on: Tau neurofibrillary filaments; experiment: Fluorescence staining of brain slices from patients with Alzheimer's disease (AD), Tau; assay type: binding, human; conditions: 30 μM compound, superior temporal gyrus sections 6 μm, fluorescence microscopy, FIG. 2
Procedure: as §1, §2

[4] = Blood-brain barrier permeability test, rat tail vein injection; assay type: in vivo; conditions: brain / blood supernatant after centrifugation, intravenous, SD rats, 5 mg/kg tail vein, 20 min after administration, LC-MS/MS, read-out: brain/blood ratio
Procedure: The compound of the invention is injected into a rat tail vein to determine the blood-brain barrier permeability in vivo according to the following method.
Dissolve the tested compound in DMSO, and add castor oil and PBS for dilution (DMSO:castor oil:PBS=1:1:8). SD rats were weighed and given 5 mg/kg in the tail vein. 500 μL of blood was taken 20 min after administration after anesthetized with isoflurane. Cardiac perfusion was performed with 200 mL PBS and stopped until the organ faded, following brain tissue was got out and washed with PBS.
After centrifuging the extracted blood at 9000 rpm for 5 min, 200 μL supernatant was taken and added 800 μL methanol. After centrifuging at 14000 rpm for 10 min, the supernatant was taken and filtered through a 0.22 μm filter membrane and stored at −80° C. for use.
2 mL PBS and 2 mL methanol were added to about 0.5 g of brain tissue to make a tissue homogenization, and then 1 mL homogenate was taken out and centrifuged at 14,000 rpm for 10 min after 2 mL methanol was added, 1 mL supernatant was taken through 0.22 μm filter membrane and stored at −80° C. for use. The concentration of compounds in the above supernatant of blood and brain homogenate were checked by LC-MS/MS, respectively.

[5] = fluorescence method, α-synuclein aggregates (3 μM), room temperature 1 hour, read-out: Binding affinity (Kd) on human α-synuclein aggregates

CN(C)c1ccc(-c2nc3cc(-c4cccnc4)ccc3o2)cc1 [I-2]
Kd [1, 5]: 500 to 1000 nM

CN1CCN(c2ccc3oc(-c4ccc(N(C)C)nc4)nc3c2)C(=O)C1 [I-4]
Staining/binding of Aβ lesions in AD patient brain slices (Aβ lesions): could also detect Aβ lesions; also recorded: very weak binding
Staining of Lewy bodies and Lewy neurites in DLB patient brain slices [2]: can stain Lewy bodies and Lewy neurites; also recorded: can well label the α-synuclein in Lewy bodies and Lewy neurites
Binding to α-synuclein pathological tissue compared with Aβ and Tau pathological tissue (selectivity) [2]: significantly stronger
Staining/binding of Tau neurofibrillary filaments in AD patient brain slices [3]: fail to Tau neurofibrillary filaments; also recorded: no binding
Kd [1]: 100 to 200 nM
Kp at 20 min [4]: ≥ 1

CN(C)c1ccc(-c2nc3cc(-c4cccnc4)ccc3o2)cn1 [I-1]
Kd [1, 5]: 500 to 1000 nM

Fc1ccc(-c2ccc3oc(-c4ccc(N5CCCC5)nc4)nc3c2)cn1 [I-5]
Staining/binding of Aβ lesions in AD patient brain slices (Aβ lesions): could also detect Aβ lesions; also recorded: very weak binding
Staining of Lewy bodies and Lewy neurites in DLB patient brain slices [2]: can stain Lewy bodies and Lewy neurites; also recorded: can well label the α-synuclein in Lewy bodies and Lewy neurites
Binding to α-synuclein pathological tissue compared with Aβ and Tau pathological tissue (selectivity) [2]: significantly stronger
Staining/binding of Tau neurofibrillary filaments in AD patient brain slices [3]: fail to Tau neurofibrillary filaments; also recorded: no binding
Kd [1, 5]: 200 to 500 nM
Kp at 20 min [4]: ≥ 1

CN(C)c1ccc(-c2nc3cc(N4CCN(CCF)CC4=O)ccc3o2)cn1 [I-10]
Kd [1, 5]: 200 to 500 nM

Fc1ccc(-c2ccc3nc(-c4ccc(N5CCCC5)nc4)oc3c2)cn1 [I-6]
Staining/binding of Aβ lesions in AD patient brain slices (Aβ lesions): could also detect Aβ lesions; also recorded: very weak binding
Staining of Lewy bodies and Lewy neurites in DLB patient brain slices [2]: can stain Lewy bodies and Lewy neurites; also recorded: can well label the α-synuclein in Lewy bodies and Lewy neurites
Binding to α-synuclein pathological tissue compared with Aβ and Tau pathological tissue (selectivity) [2]: significantly stronger
Staining/binding of Tau neurofibrillary filaments in AD patient brain slices [3]: fail to Tau neurofibrillary filaments; also recorded: no binding
Kd [1, 5]: 200 to 500 nM
Kp at 20 min [4]: ≥ 1

Reference: patent US20250049966A1, “SMALL MOLECULE TRACER FOR IMAGING ALPHA-SYNUCLEIN AGGREGATES” (Fudan University, priority 2021, published 2025)
